Key:
GriE = target: T1, GriE (Streptomyces muensis, UniProt A0A0E3URV8); assay: X-ray crystallography; format: binding
T1 construct: recombinant, produced in E. coli
T1 sequence (A0A0E3URV8 1-270): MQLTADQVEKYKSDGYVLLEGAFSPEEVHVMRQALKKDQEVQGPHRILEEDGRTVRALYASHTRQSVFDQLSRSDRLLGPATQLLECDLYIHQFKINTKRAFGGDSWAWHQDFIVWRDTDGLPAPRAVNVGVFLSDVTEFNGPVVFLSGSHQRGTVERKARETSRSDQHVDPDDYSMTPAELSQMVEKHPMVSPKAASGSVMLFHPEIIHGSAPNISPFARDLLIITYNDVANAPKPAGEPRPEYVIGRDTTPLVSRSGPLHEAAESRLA

GriF = target: T2, GriF (Streptomyces muensis, UniProt A0A0E3URI1); assay: LC-MS of product; format: biochemical; conditions: NAD+, ZnSO4; product cyclizes to the pyrroline
T2 construct: recombinant, produced in E. coli
T2 sequence (A0A0E3URI1 1-391): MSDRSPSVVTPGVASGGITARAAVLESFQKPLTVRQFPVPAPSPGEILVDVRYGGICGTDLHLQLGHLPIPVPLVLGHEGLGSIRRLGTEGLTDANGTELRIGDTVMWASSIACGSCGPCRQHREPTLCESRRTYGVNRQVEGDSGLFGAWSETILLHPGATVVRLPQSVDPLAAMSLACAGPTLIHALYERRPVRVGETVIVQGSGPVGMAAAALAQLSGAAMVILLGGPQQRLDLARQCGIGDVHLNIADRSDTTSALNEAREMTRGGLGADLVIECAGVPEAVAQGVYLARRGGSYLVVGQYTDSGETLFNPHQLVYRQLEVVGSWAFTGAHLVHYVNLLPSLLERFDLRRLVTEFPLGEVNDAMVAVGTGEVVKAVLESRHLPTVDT

[1] = co-crystallized with Mn2+, L-leucine and alpha-ketoglutarate, turned over in the crystal set-up, 1.53 Å

For O=C(O)CCC(=O)O [succinate], the X-ray crystallography (GriE; [1]) was “succinate coordinates the metal with one carboxylate oxygen”.

With CC(C)C[C@H](N)C(=O)O [L-leucine] the X-ray crystallography (GriE; co-crystallized with Co2+ in place of Fe2+ and alpha-ketoglutarate, 1.76 Å, active site, no direct metal contact) was “unambiguously revealed bound metal and both L-leucine and α-ketoglutarate”.

With C[C@@H](CO)C[C@H](N)C(=O)O [(2S,4R)-5-hydroxyleucine] the LC-MS of product (GriF) was “incubation of recombinant GriF with 5-hydroxyleucine, ZnSO4 and NAD^+ was unstable” and the X-ray crystallography (GriE; [1]) was “electron density clearly confirms 5-hydroxyleucine to be the postulated (2S,4R)-diastereomer”.

Source: publication PMC5676206, “Biosynthesis of methyl-proline containing griselimycins, natural products with anti-tuberculosis activity” (Chemical Science, 2017)
